Measured values as given in patent US6875451B2, “Compositions and methods for the treatment of primary and metastatic neoplastic diseases using arsenic compounds” (PolaRx Biopharmaceuticals Inc., priority 1997, dated 2005).

Columns and labels:
Format in all cases: cell-based
TK-10 = experiment: SRB growth assay, 6 days exposure, renal cancer; settings: TK-10, 6 days
Description: (§1) Arsenic trioxide (1 mg/ml, 10 mg/ampoule, manufactured by Taylor Pharmaceuticals, Decatur, Ill.) was tested at five concentrations each at 10-fold dilutions, i.e., 10^−5, 10^−6, 10^−7, 10^−8 and 10^−9 μg/ml.
(§2) The in vitro tests were performed by incubating the test cells in the presence of the indicated concentration of arsenic trioxide under standard culture conditions for a designated period of time, which is followed by a sulforhodamine B (SRB) protein assay to estimate cell viability or growth. The cell lines are organized into subpanels according to the origin of the cell lines, e.g., leukemia, breast cancer, etc. A description of the cell lines and method of testing is described in Monk et al. (1997, Anticancer Drug Des. 12:533-41) and Weinstein et al., (1997, Science 275:343-9), which are incorporated herein in their entirety.
(§3) The measurement of an effect is expressed in Percentage Growth (PG). The measured effect of the compound on a cell line is calculated according to one or the other of the following two expressions: If (Mean ODtest−Mean ODzero)≧0. then PG=100×(Mean ODtest−Mean ODzero)/(Mean ODctrl−Mean ODzero) If (Mean ODtest−Mean ODzero)<0. then PG=100×(Mean ODtest−Mean ODzero)/(Mean ODzero where: • Mean ODzero=the average of optical density measurements of SRB-derived color just before exposure of cells to the test compounds; • Mean ODtest=the average of optical density measurements of SRB-derived color after exposure of cells to the test compound for a designated period of time; and • Mean ODctrl=the average of optical density measurements of SRB-derived color after with no exposure of cells to the test compound for a designated period of time
(§4) The first two columns describe the subpanel (e.g., leukemia) and cell line (e.g., CCRF-CEM) involved. The next two columns list the Mean ODzero and Mean ODctrl; the next five columns list the Mean ODtest for each of five different concentrations. Each concentration is expressed as the log10 (molar or μg/ml). The next five columns list the calculated PGs for each concentration. The response parameters GI50, TGI and LC50 are interpolated values representing the concentrations at which the PG is +50, 0, and −50, respectively. Sometimes these response parameters cannot be obtained by interpolation. If, for instance, all of the PGs in a given row exceed +50, then none of the three parameters can be obtained by interpolation. In such a case, the value given for each response parameter is the highest concentration tested and is preceded by a “>” sign. This practice is extended similarly to the other possible situations where a response parameter cannot be obtained by interpolation.
(§5) In the first set, the cells from 56 different cancer cell lines were exposed to five concentrations of arsenic trioxide continuously for two days prior to performing the SRB assay. In the second set, the cells from 50 different cell lines (a subset of the first 56 cell lines, plus the renal cancer cell line 786-0) were exposed continuously for six days prior to the SRB assay.

786-O = experiment: SRB growth assay, 6 days exposure, renal cancer; settings: 786-0, 6 days
Description: as §1, §2, §3, §4, §5

HT29 = experiment: SRB growth assay, 6 days exposure, colon cancer; settings: HT29, 6 days
Description: as §1, §2, §3, §4, §5

SW-620 = experiment: SRB growth assay, 6 days exposure, colon cancer; settings: SW-620, 6 days
Description: as §1, §2, §3, §4, §5

HCT-116 = experiment: SRB growth assay, 6 days exposure, colon cancer; settings: HCT-116, 6 days
Description: as §1, §2, §3, §4, §5

HCT-15 = experiment: SRB growth assay, 6 days exposure, colon cancer; settings: HCT-15, 6 days
Description: as §1, §2, §3, §4, §5

KM12 = experiment: SRB growth assay, 6 days exposure, colon cancer; settings: KM12, 6 days
Description: as §1, §2, §3, §4, §5

COLO 205 = experiment: SRB growth assay, 6 days exposure, colon cancer; settings: COLO 205, 6 days
Description: as §1, §2, §3, §4, §5

[1] = read-out: LC50 (the source's name)

For arsenic trioxide, the TGI (TK-10) was >1.26E−05, the “Mean Optical Densities” value (TK-10; Log 10 Concentration −4.9) was 0.239 and the “Percent Growth” value (TK-10; Log 10 Concentration −4.9) was 13%. For the same substance, the “Mean Optical Densities” value (TK-10; Log 10 Concentration −5.9) was 1.103, the “Percent Growth” value (TK-10; Log 10 Concentration −5.9) was 82% and the “Mean Optical Densities” value (TK-10; Log 10 Concentration −6.9) was 1.334. The “Percent Growth” value (TK-10; Log 10 Concentration −6.9) was 100%, the “Mean Optical Densities” value (TK-10; Log 10 Concentration −7.9) was 1.268 and the “Percent Growth” value (TK-10; Log 10 Concentration −7.9) was 95%. For the same substance, the “Mean Optical Densities” value (TK-10; Log 10 Concentration −8.9) was 1.356, the “Percent Growth” value (TK-10; Log 10 Concentration −8.9) was 102% and the CC50 (TK-10; [1]) was > 12.6 µM. For the same substance, the TGI (786-O) was 2.77E−06, the “Mean Optical Densities” value (786-O; Log 10 Concentration −4.9) was −0.003 and the “Percent Growth” value (786-O; Log 10 Concentration −4.9) was −100%. The “Mean Optical Densities” value (786-O; Log 10 Concentration −5.9) was 0.832, the “Percent Growth” value (786-O; Log 10 Concentration −5.9) was 52% and the “Mean Optical Densities” value (786-O; Log 10 Concentration −6.9) was 1.786. For the same substance, the “Percent Growth” value (786-O; Log 10 Concentration −6.9) was 113%, the “Mean Optical Densities” value (786-O; Log 10 Concentration −7.9) was 1.821 and the “Percent Growth” value (786-O; Log 10 Concentration −7.9) was 116%. For the same substance, the “Mean Optical Densities” value (786-O; Log 10 Concentration −8.9) was 1.582, the “Percent Growth” value (786-O; Log 10 Concentration −8.9) was 100% and the TGI (HT29) was >1.26E−05. The “Mean Optical Densities” value (HT29; Log 10 Concentration −4.9) was 0.027, the “Percent Growth” value (HT29; Log 10 Concentration −4.9) was 0% and the “Mean Optical Densities” value (HT29; Log 10 Concentration −5.9) was 1.476. For the same substance, the “Percent Growth” value (HT29; Log 10 Concentration −5.9) was 48%, the “Mean Optical Densities” value (HT29; Log 10 Concentration −6.9) was 2.706 and the “Percent Growth” value (HT29; Log 10 Concentration −6.9) was 88%. The “Mean Optical Densities” value (HT29; Log 10 Concentration −7.9) was 2.988, the “Percent Growth” value (HT29; Log 10 Concentration −7.9) was 98% and the “Mean Optical Densities” value (HT29; Log 10 Concentration −8.9) was 3.189. The “Percent Growth” value (HT29; Log 10 Concentration −8.9) was 104%, the CC50 (HT29; [1]) was > 12.6 µM and the TGI (SW-620) was 3.43E−06. The “Mean Optical Densities” value (SW-620; Log 10 Concentration −4.9) was 0.007, the “Percent Growth” value (SW-620; Log 10 Concentration −4.9) was −72% and the “Mean Optical Densities” value (SW-620; Log 10 Concentration −5.9) was 1.475. The “Percent Growth” value (SW-620; Log 10 Concentration −5.9) was 55%, the “Mean Optical Densities” value (SW-620; Log 10 Concentration −6.9) was 2.337 and the “Percent Growth” value (SW-620; Log 10 Concentration −6.9) was 88%. For the same substance, the “Mean Optical Densities” value (SW-620; Log 10 Concentration −7.9) was 2.308, the “Percent Growth” value (SW-620; Log 10 Concentration −7.9) was 87% and the “Mean Optical Densities” value (SW-620; Log 10 Concentration −8.9) was 2.613. For the same substance, the “Percent Growth” value (SW-620; Log 10 Concentration −8.9) was 99%, the TGI (HCT-116) was >1.26E−05 and the “Mean Optical Densities” value (HCT-116; Log 10 Concentration −4.9) was 1.931. The “Percent Growth” value (HCT-116; Log 10 Concentration −4.9) was 56%, the “Mean Optical Densities” value (HCT-116; Log 10 Concentration −5.9) was 3.284 and the “Percent Growth” value (HCT-116; Log 10 Concentration −5.9) was 96%. For the same substance, the “Mean Optical Densities” value (HCT-116; Log 10 Concentration −6.9) was 3.381, the “Percent Growth” value (HCT-116; Log 10 Concentration −6.9) was 99% and the “Mean Optical Densities” value (HCT-116; Log 10 Concentration −7.9) was 3.289. The “Percent Growth” value (HCT-116; Log 10 Concentration −7.9) was 96%, the “Mean Optical Densities” value (HCT-116; Log 10 Concentration −8.9) was 3.395 and the “Percent Growth” value (HCT-116; Log 10 Concentration −8.9) was 99%. The CC50 (HCT-116; [1]) was > 12.6 µM, the TGI (HCT-15) was >1.26E−05 and the “Mean Optical Densities” value (HCT-15; Log 10 Concentration −4.9) was 0.404. The “Percent Growth” value (HCT-15; Log 10 Concentration −4.9) was 10%, the “Mean Optical Densities” value (HCT-15; Log 10 Concentration −5.9) was 3.432 and the “Percent Growth” value (HCT-15; Log 10 Concentration −5.9) was 89%. The “Mean Optical Densities” value (HCT-15; Log 10 Concentration −6.9) was 4.227, the “Percent Growth” value (HCT-15; Log 10 Concentration −6.9) was 110% and the “Mean Optical Densities” value (HCT-15; Log 10 Concentration −7.9) was 3.921. For the same substance, the “Percent Growth” value (HCT-15; Log 10 Concentration −7.9) was 102%, the “Mean Optical Densities” value (HCT-15; Log 10 Concentration −8.9) was 3.965 and the “Percent Growth” value (HCT-15; Log 10 Concentration −8.9) was 103%. For the same substance, the CC50 (HCT-15; [1]) was > 12.6 µM, the TGI (KM12) was >1.26E−05 and the “Mean Optical Densities” value (KM12; Log 10 Concentration −4.9) was 0.017. For the same substance, the “Percent Growth” value (KM12; Log 10 Concentration −4.9) was 1%, the “Mean Optical Densities” value (KM12; Log 10 Concentration −5.9) was 0.036 and the “Percent Growth” value (KM12; Log 10 Concentration −5.9) was 4%. For the same substance, the “Mean Optical Densities” value (KM12; Log 10 Concentration −6.9) was 0.507, the “Percent Growth” value (KM12; Log 10 Concentration −6.9) was 83% and the “Mean Optical Densities” value (KM12; Log 10 Concentration −7.9) was 0.533. The “Percent Growth” value (KM12; Log 10 Concentration −7.9) was 87%, the “Mean Optical Densities” value (KM12; Log 10 Concentration −8.9) was 0.487 and the “Percent Growth” value (KM12; Log 10 Concentration −8.9) was 80%. The CC50 (KM12; [1]) was > 12.6 µM, the TGI (COLO 205) was >1.26E−05 and the “Mean Optical Densities” value (COLO 205; Log 10 Concentration −4.9) was 0.024. For the same substance, the “Percent Growth” value (COLO 205; Log 10 Concentration −4.9) was 0%, the “Mean Optical Densities” value (COLO 205; Log 10 Concentration −5.9) was 1.404 and the “Percent Growth” value (COLO 205; Log 10 Concentration −5.9) was 59%. For the same substance, the “Mean Optical Densities” value (COLO 205; Log 10 Concentration −6.9) was 2.283, the “Percent Growth” value (COLO 205; Log 10 Concentration −6.9) was 97% and the “Mean Optical Densities” value (COLO 205; Log 10 Concentration −7.9) was 2.026. The “Percent Growth” value (COLO 205; Log 10 Concentration −7.9) was 86%, the “Mean Optical Densities” value (COLO 205; Log 10 Concentration −8.9) was 2.308 and the “Percent Growth” value (COLO 205; Log 10 Concentration −8.9) was 98%. The CC50 (COLO 205; [1]) was > 12.6 µM.
